Test results from patent US20110124703A1, “MOLECULES COMPRISING A BIS(HETEROARYL)MALEIMIDE BACKBONE, AND USE THEREOF IN THE INHIBITION OF DDE/DDD ENZYMES” (priority 2008, published 2011).
Where two headings read alike, the source gives them in different places.

Columns and labels:
[1] = biological target: T1, MOS1 transposase (MBP-MOS1) (Drosophila mauritiana, UniProt Q7JQ07); test: In vitro transposition test; type: biochemical; conditions: 80 μM compound; for Transposition frequencies: mean of at least five experiments; for Inhibition factors: ratio of transposition frequency with DMSO to that with compound
T1 construct: made in house
T1 sequence (Q7JQ07 whole entry): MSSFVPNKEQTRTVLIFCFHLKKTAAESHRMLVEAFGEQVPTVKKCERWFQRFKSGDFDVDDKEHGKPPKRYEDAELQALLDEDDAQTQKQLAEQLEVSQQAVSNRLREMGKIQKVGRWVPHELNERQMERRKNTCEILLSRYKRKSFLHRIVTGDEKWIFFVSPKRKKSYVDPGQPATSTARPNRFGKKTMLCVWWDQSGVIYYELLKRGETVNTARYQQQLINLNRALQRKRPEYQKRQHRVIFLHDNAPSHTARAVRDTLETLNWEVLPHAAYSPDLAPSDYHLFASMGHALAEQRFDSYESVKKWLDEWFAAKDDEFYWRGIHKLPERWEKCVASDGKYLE
Description: The in vitro transposition reactions were carried out using pBC-3T3 both as the donor DNA and as the target, as was carried out previously for transposition tests in bacteria (16). The transposition reaction mixtures contained 10 mM of Tris-HCl (pH 9), 50 mM of NaCl, 0.5 mM of dithiothreitol, 20 mM of MgCl2, 0.5 mM of EDTA, 100 ng of BSA, 80 nM of MBP-MOS1 and 600 ng of supercoiled pBC-3T3 in a volume of 20 μl. Inhibitors (final concentration 80 μM) or DMSO were added to the reaction mixtures before the transposase. The reactions were carried out freely for 30 min at 30° C. then 10 μl of the stop solution (0.4% SDS, 0.4 μg/μl proteinase K) were added and the reaction mixtures were incubated at 37° C. for an additional 30 min, then at 65° C. for 10 min. The products were extracted with phenol-chloroform and precipitated in ethanol with 1 μg of yeast tRNA using conventional techniques. 10% of the reaction mixture was co-transformed with 0.01 ng of pBS-SK(−), used as a positive control for transformation (Stratagene), in 45 μl of electrocompetent Escherichia coli JM109 cells (2 mm cell, 1.5 kV in a MicroPulser™ from BioRad). The bacteria were cultivated at 37° C. for 1 hour in SOC medium. Appropriate dilutions of each reaction were spread on LB-ampicillin gelose (100 μg/ml) to evaluate the transformation efficacy and on LB-tetracyclin gelose (12.5 μg/ml) and LB-chloramphenicol gelose (80 μg/ml) in order to evaluate the frequency of transposition. The frequency of transposition is the number of Tet® colonies divided by the number of Chloram® colonies. The transformation efficacy was monitored from the number of Amp® colonies. The effect of the various compounds was expressed by calculating an inhibition factor (IF) such that IF=the frequency of transposition of the control (in DMSO) divided by the frequency of transposition obtained with the compound.
The transposition test was carried out using a purified MOS1 protein fused with the MBP and the pBC-3T3 plasmid carrying a pseudo-Mos1 transposon. In this test, pBC-3T3 was used as the pseudo-Mos1 donor, or as the target for integration of the transposon (16). […] The concentration of drugs used for the initial screening was 80 μM.

MOS1-ITR complexes = biological target: T2, MOS1-ITR complexes (Drosophila mauritiana, UniProt Q7JQ07); test: Electrophoretic mobility shift test (EMSA), assembly of MOS1-ITR complexes; type: binding; set-up: key to Assembly of complexes: +: complexes observed; −: absence of complexes; +/: traces of SEC1; conditions: for IC50: MOS1-ITR bond
T2 construct: made in house
T2 sequence (Q7JQ07 whole entry, one chain of several): as the sequence (Q7JQ07 whole entry) above
Description: The ITR30 was prepared and labeled as described above (8) with certain minor modifications: after labelling, the DNA was purified further on a native polyacrylamide gel. The binding reactions were carried out in 50 mM of NaCl, 0.5 mM of DTT, 10 mM of Tris (pH 9), 5% of glycerol and 100 ng of BSA. Each 20 μl reaction contained 0.2 pmol of ITR30 labelled with ^32P, […] of purified MBP-MOS1, 5 mM of EDTA, and 1 μl of the test compound (final concentration 400 μM) or DMSO. The mixtures were incubated at 30° C. for two hours. The complexes were separated using discontinuous native polyacrylamide gels with 4% to 6% of TBE 0.25× (acrylamide/bisacrylamide 30:0.93) containing 5% of glycerol. The gels were subjected to 200 V for 3 hours then autoradiographed.
The capacity of the ten molecules to inhibit the appearance of complexes formed in vitro between MOS1 and ITR 3′ (8) was tested using the gel mobility shift technique (EMSA). MOS1-ITR complexes were formed with a radiolabelled ITR 3′ (ITR30) in the presence of a 400 μM concentration of molecule. This concentration was at least 2.5 times higher than the highest IC50 value measured for the ten compounds.

HIV-1 integrase = biological target: T3, HIV-1 integrase (Human immunodeficiency virus type 1 group M subtype B, UniProt P04585); test: 3′ maturation and HIV-1 strand transfer tests; type: biochemical
T3 construct: made in house
Description: HIV-1 integrase was purified as described in (32). 200 nM of HIV-1 integrase was incubated in the presence of 6.25 nM of radiolabelled oligonucleotide duplex imitating the end of the LTR U5 in a buffer containing 20 mM of HEPES (pH 7.5), 10 mM of NaCl, 4 mM of DTT, 7.5 mM of MgCl2, 10% of DMSO and various concentrations of drugs. The reaction was carried out for 2 hours at 37° C. and the products were separated on an 18% acrylamide urea gel. The gel was scanned using a phosphorimager and analyzed using Image Quant (Molecular Dynamics) software. Each experiment was carried out in duplicate.
To verify whether the novel group of inhibitors (compounds 1 to 4) is also susceptible of blocking HIV-1 integrase, the activity of compound 4 was tested against the 3′ maturation and strand transfer activities of HIV-1 integrase. The percentage inhibition measured in the two independent experiments were traced as a function of the concentration of compound 4 (FIG. 10). […] It was also an excellent inhibitor of HIV-1 integrase. […] In consequence, MOS1 can be considered as a novel substitute for the identification of inhibitors of HIV-1 integrase.

[2] = biological target: T1, MOS1 transposase (MBP-MOS1); test: In vitro excision test; type: biochemical
Description: These tests were carried out under the same conditions as for the in vitro transposition tests, with the exception of the fact that the incubation was carried out at 37° C. instead of 30° C. In order to determine the IC50, a range of concentrations of the compound from 1000 to 0.8 μM was used as indicated in the text. After incubation, the reaction was interrupted by adding 2 μl of 10× loading buffer and the products were loaded directly onto a 0.8% TAE 1×-agarose gel containing ethidium bromide. The quantity of backbone liberated was evaluated using the GeneSnap system (SynGene). The percentage inhibition of excision was plotted as a function of the concentration of the compound. The experimental data were adjusted on a sigmoid dose-response curve using Prism software. Each experiment was repeated at least two times.
For a better characterization of the inhibiting activity of these ten compounds and their action mechanisms on the transposition of Mos1, the capacity of the chemical compounds to inhibit excision of the transposon was tested in vitro, using the pBC-3T3 transposon as a donor plasmid. MOS1 triggers excision of the transposon from a donor plasmid, generating two linear DNA fragments, the transposon (1.2 kb) and the plasmid backbone (3.4 kb). After excision, the transposon can be re-inserted in a target. The excision activity of the drug was measured by quantifying the plasmid backbone as it is a final product in the reaction. In the absence of a drug, the transposase released the transposon from the donor plasmid.
In order to determine the concentration of drug necessary to inhibit 50% of the reaction (IC50), the inhibition percentages measured from two independent experiments were plotted as a function of the concentration of drug (FIG. 3b). Similar experiments were carried out with the nine other chemical compounds and the corresponding IC50 values are shown in Table III.

Compound | Transposition frequencies [1] | Inhibition factors [1] | Assembly of complexes (MOS1-ITR complexes; 400 μM compound) | MOS1-ITR complexes in the presence of compound (MOS1-ITR complexes; 400 μM compound) | IC50 (MOS1-ITR complexes) | times more active against strand transfer activity than 3′ maturation (HIV-1 integrase) | IC50 (HIV-1 integrase; read-out: IC50 3′ maturation) | IC50 (HIV-1 integrase; read-out: IC50 strand transfer activity) | IC50 [2] | excision of the transposon ([2]; highest concentration of the drug (1 mM)) | inhibition of MOS1-ITR complexes (MOS1-ITR complexes; 400 μM compound)
O=C(O)c1ccc(C2=C(c3ccc(C(=O)O)o3)C(=O)N(c3ccc(O)cc3)C2=O)o1 [Compound 2] | 1.2 × 10^−6 | 33 | − | completely destabilized | 15 µM |  |  |  |  |  | 
CCOC(=O)C(Cc1ccccc1)N1C(=O)C(c2ccc(C(=O)O)o2)=C(c2ccc(C(=O)O)o2)C1=O (stereo not drawn) [Compound 3] | 4.01 × 10^−6 | 100 | − | completely destabilized | 30 µM |  |  |  |  |  | 
O=C/C=C/c1ccc(C2=C(c3ccc(/C=C/C=O)o3)C(=O)N(Cc3ccccc3)C2=O)o1 [Compound 4] | 5.37 × 10^−6 | 75 | − | completely destabilized | 12 µM | 10 times | 70 µM | 7 µM |  |  | 
COc1ccc(C(c2c(O)c3ccccc3oc2=O)c2c(O)c3ccccc3oc2=O)cc1CSc1ccccn1 [Compound 7, reference compound] | 4.85 × 10^−6 | 82.5 | − | completely destabilized |  |  |  |  |  |  | 
COc1cccc(OCCOc2cccc(CC3SC(=S)NC3=O)c2)c1 (stereo not drawn) [Compound 8, reference compound] | 5.04 × 10^−6 | 79 | − | completely destabilized |  |  |  |  |  |  | 
O=C(Nc1ccccc1C(=O)O)c1cccc(NC(=O)C(c2ccccc2)c2ccccc2)c1 [Compound 9, reference compound] | 1.64 × 10^−5 | 25 |  |  |  |  |  |  | 150 µM | completely suppressed | 90%
O=C(O)C(Cc1ccccc1)N1C(=O)C(=CC=Cc2ccccc2)SC1=S (stereo not drawn) [Compound 10, reference compound] | 2.76 × 10^−6 | 145 | − | completely destabilized |  |  |  |  | 35 µM |  | 
